Molecules are shown by their SMILES. Values after ≈ are worked out from the molar mass of the structure shown.

The test system of series [1] is RAW264.7. The series can be described thus: Antiinflammatory activity in mouse RAW264.7 cells assessed as inhibition of LPS induced iNOS-dependent nitric oxide production at 1.25 ug/ml after 24 hrs by Griess assay relative to control. The note with it: RAW264.7, 24 h. Format: functional. A general note: Nitrite, measured by Griess reagent, commonly stands in for NO production.

In series [2] the test system is RAW264.7. Kind of series: Antiinflammatory activity in mouse RAW264.7 cells assessed as inhibition of LPS induced iNOS-dependent nitric oxide production at 2.5 ug/ml after 24 hrs by Griess assay relative to control. Format: functional. To be noted: RAW264.7, 24 h.
Series [3] concerns RAW264.7. The series can be described thus: Antiinflammatory activity in mouse RAW264.7 cells assessed as inhibition of LPS induced iNOS-dependent nitric oxide production at 5 ug/ml after 24 hrs by Griess assay relative to control. Format: functional. To be noted: RAW264.7, 24 h.
For series [4], the system named is RAW264.7. The series can be described thus: Antiinflammatory activity in mouse RAW264.7 cells assessed as inhibition of LPS induced iNOS-dependent nitric oxide production at 10 ug/ml after 24 hrs by Griess assay relative to control. Type of series: functional. To be noted: RAW264.7, 24 h.
Series [5] relates to RAW264.7. The series can be described thus: Antiinflammatory activity in mouse RAW264.7 cells assessed as inhibition of LPS induced iNOS-dependent nitric oxide production after 24 hrs by Griess assay. Type of series: functional, cell-based. The note with it: RAW264.7, 24 h.
A short description of series [6]: Cytotoxicity against LPS-stimulated mouse RAW264.7 cells assessed as cell viability at 1.25 ug/ml after 24 hrs by MTT assay relative to control. Format: cell-based. The note with it: LPS-stimulated RAW264.7 cells, read-out: Activity. (Tetrazolium assays rely on reduction of a dye to a coloured formazan, in cell work by metabolically active cells.)
Series [7] is described as follows: Cytotoxicity against LPS-stimulated mouse RAW264.7 cells assessed as cell viability at 2.5 ug/ml after 24 hrs by MTT assay relative to control. Format: cell-based. To be noted: LPS-stimulated RAW264.7 cells, read-out: Activity.
A short description of series [8]: Cytotoxicity against LPS-stimulated mouse RAW264.7 cells assessed as cell viability at 5 ug/ml after 24 hrs by MTT assay relative to control. Format: cell-based. The note with it: LPS-stimulated RAW264.7 cells, read-out: Activity.
Series [9] in a line: Cytotoxicity against LPS-stimulated mouse RAW264.7 cells assessed as cell viability at 10 ug/ml after 24 hrs by MTT assay relative to control. Type of series: cell-based. The note with it: LPS-stimulated RAW264.7 cells, read-out: Activity.

In the case of `COc1ccc(C(=O)/C=C/c2ccc(OC)c(OC)c2)c(O)c1`, in the series with RAW264.7 [1], the inhibition at 1.25 µg/mL was found to be 9.1%. Moreover, the inhibition at 2.5 µg/mL with RAW264.7 [2] turned out to be 3%. Further, in the series on RAW264.7 [3], the inhibition at 5 µg/mL is 49.6%. Also, the inhibition at 10 µg/mL with RAW264.7 [4] stood at 77.3%. In addition, the IC50 in the series with RAW264.7 [5] worked out at 5.05 µg/mL (≈ 16.1 µM). Moreover, the viability at 24 h, 1.25 ug/ml in [6] was 99.7%. For the same molecule, the viability at 24 h, 2.5 ug/ml in [7] was found to be 92.6%. The viability at 24 h, 5 ug/ml in series [8] came to 73.9%. In addition, the viability at 24 h, 10 ug/ml in [9] was 70%.
On to `COc1ccc(C(=O)/C=C/c2ccc3c(c2)OCO3)c(O)c1`, for which the inhibition at 1.25 µg/mL with RAW264.7 [1] worked out at 50.2%. Besides, in the series with RAW264.7 [2], the inhibition at 2.5 µg/mL turned out to be 5.7%. The inhibition at 5 µg/mL with RAW264.7 [3] amounted to 3%. In addition, in the series on RAW264.7 [4], the inhibition at 10 µg/mL amounted to 8.6%. Besides, in the series with RAW264.7 [5], the IC50 stood at 1.25 µg/mL (≈ 4.19 µM). Also, the viability at 24 h, 1.25 ug/ml in series [6] came to 96.4%. Besides, in series [7], the viability at 24 h, 2.5 ug/ml worked out at 91.7%. For the same molecule, the viability at 24 h, 5 ug/ml in series [8] came to 75.2%. In addition, the viability at 24 h, 10 ug/ml in series [9] came out at 72%.
Turning to `COc1ccc(CCCc2cc(OC)ccc2OC)c(O)c1`, in the series with RAW264.7 [1], the inhibition at 1.25 µg/mL turned out to be 6.2%. The inhibition at 2.5 µg/mL in the series on RAW264.7 [2] worked out at 31.7%. The inhibition at 5 µg/mL with RAW264.7 [3] was 36.4%. Also, the inhibition at 10 µg/mL with RAW264.7 [4] was found to be 50.2%. The IC50 with RAW264.7 [5] was 9.9 µg/mL (≈ 32.7 µM). Further, the viability at 24 h, 1.25 ug/ml in series [6] was 102%. The viability at 24 h, 2.5 ug/ml in series [7] stood at 102%. The viability at 24 h, 5 ug/ml in series [8] came out at 98.5%. The viability at 24 h, 10 ug/ml in [9] stood at 42.5%.
Take `COc1ccc(C(=O)/C=C/c2ccc(OC)c(OC)c2OC)c(O)c1`: in the series with RAW264.7 [1], the inhibition at 1.25 µg/mL turned out to be 9.1%. For the same molecule, the inhibition at 2.5 µg/mL with RAW264.7 [2] was 9.7%. Besides, the inhibition at 5 µg/mL in the series with RAW264.7 [3] was determined as 4.1%. The inhibition at 10 µg/mL in the series on RAW264.7 [4] was 0.1%. Moreover, in the series with RAW264.7 [5], the IC50 was more than 10 µg/mL. Also, the viability at 24 h, 1.25 ug/ml in series [6] turned out to be 98.5%. Also, in series [7], the viability at 24 h, 2.5 ug/ml was determined as 96.6%. In addition, the viability at 24 h, 5 ug/ml in [8] was determined as 72.5%. Besides, the viability at 24 h, 10 ug/ml in [9] was found to be 75.3%.
On to `COc1ccc(CCCc2cccc(O)c2)cc1OC`, for which the inhibition at 1.25 µg/mL in the series with RAW264.7 [1] came out at 13.9%. In the series with RAW264.7 [2], the inhibition at 2.5 µg/mL was determined as 5.4%. For the same molecule, in the series on RAW264.7 [3], the inhibition at 5 µg/mL is 15.4%. The inhibition at 10 µg/mL with RAW264.7 [4] was determined as 44.7%. In addition, the IC50 with RAW264.7 [5] is more than 10 µg/mL. Moreover, in series [6], the viability at 24 h, 1.25 ug/ml was found to be 99.9%. In addition, in series [7], the viability at 24 h, 2.5 ug/ml came out at 98.5%. The viability at 24 h, 5 ug/ml in [8] is 94.8%. In addition, the viability at 24 h, 10 ug/ml in series [9] was determined as 78.8%.
For `Oc1ccc(CCCc2ccc3c(c2)OCO3)cc1`, the inhibition at 1.25 µg/mL in the series on RAW264.7 [1] stood at 33%. For the same molecule, in the series with RAW264.7 [2], the inhibition at 2.5 µg/mL is 37.7%. Besides, in the series on RAW264.7 [3], the inhibition at 5 µg/mL amounted to 48.9%. Besides, the inhibition at 10 µg/mL with RAW264.7 [4] turned out to be 69.4%. The IC50 with RAW264.7 [5] was found to be 5.18 µg/mL (≈ 20.2 µM). Moreover, the viability at 24 h, 1.25 ug/ml in series [6] came out at 99.2%. Further, the viability at 24 h, 2.5 ug/ml in series [7] turned out to be 95.7%. Also, the viability at 24 h, 5 ug/ml in series [8] was 94.5%. For the same molecule, in series [9], the viability at 24 h, 10 ug/ml is 92.6%.
On to `COc1ccc(C(=O)/C=C/c2cc(OC)ccc2OC)c(O)c1`, for which, in the series with RAW264.7 [1], the inhibition at 1.25 µg/mL came out at 7.4%. The inhibition at 2.5 µg/mL in the series on RAW264.7 [2] is 0.7%. Also, in the series with RAW264.7 [3], the inhibition at 5 µg/mL came to 6.1%. Moreover, the inhibition at 10 µg/mL in the series on RAW264.7 [4] turned out to be 26.6%. Further, the IC50 with RAW264.7 [5] was more than 10 µg/mL. In addition, the viability at 24 h, 1.25 ug/ml in series [6] was determined as 95.4%. The viability at 24 h, 2.5 ug/ml in [7] came out at 93.3%. In addition, the viability at 24 h, 5 ug/ml in series [8] was 71.1%. For the same molecule, the viability at 24 h, 10 ug/ml in series [9] stood at 66.5%.
For the molecule `O=C(/C=C/c1ccc2c(c1)OCO2)c1ccc(O)cc1`, in the series on RAW264.7 [1], the inhibition at 1.25 µg/mL turned out to be 4.9%. For the same molecule, in the series with RAW264.7 [2], the inhibition at 2.5 µg/mL amounted to 1.1%. Moreover, the inhibition at 5 µg/mL in the series on RAW264.7 [3] turned out to be 14.1%. The inhibition at 10 µg/mL with RAW264.7 [4] was 52.5%. Further, the IC50 in the series with RAW264.7 [5] is 9.56 µg/mL (≈ 35.6 µM). In addition, the viability at 24 h, 1.25 ug/ml in series [6] was 99.2%. For the same molecule, in series [7], the viability at 24 h, 2.5 ug/ml was 95.2%. The viability at 24 h, 5 ug/ml in series [8] stood at 88.5%. For the same molecule, in series [9], the viability at 24 h, 10 ug/ml worked out at 68%.
In the case of `COc1ccc(/C=C/C(=O)c2cccc(O)c2)cc1`, the inhibition at 1.25 µg/mL in the series on RAW264.7 [1] is 9.4%. The inhibition at 2.5 µg/mL in the series on RAW264.7 [2] came to 2.1%. In addition, the viability at 24 h, 1.25 ug/ml in series [6] was found to be 99%. Besides, the viability at 24 h, 2.5 ug/ml in series [7] was 99.1%. For the same molecule, the viability at 24 h, 5 ug/ml in series [8] was determined as 63.3%. In series [9], the viability at 24 h, 10 ug/ml amounted to 41.2%.

For orientation: inhibition means the percentage by which the read-out fell short of the control. Usually IC50 stands for the point on the concentration scale where inhibition reaches its midpoint.

(Values after ChEMBL document CHEMBL4004877, “Synthesis and biological evaluation of chalcone, dihydrochalcone, and 1,3-diarylpropane analogs as anti-inflammatory agents” (Bioorg Med Chem Lett, 2017).)
